One assay concerns the target Ileal Bile Acid Transporter Human (Homo sapiens (Human), UniProt Q12908). The assay can be described thus: ISBT Hu HEK Uptake SPA: glycocholic acid uptake, radiometric SPA. The class given is cell-based. Particulars: human IBAT in HEK cells. The method, then: ISBT Hu HEK Uptake SPA 13203 IBAT HUM Ileal Bile Acid Transporter Human HEK Glycocholic acid Uptake Radiometric—SPA Inhibitor IC50 Mean IC50 (nM) was determined for the compounds of examples 1-14
Sequence of IBAT (P70172 whole entry): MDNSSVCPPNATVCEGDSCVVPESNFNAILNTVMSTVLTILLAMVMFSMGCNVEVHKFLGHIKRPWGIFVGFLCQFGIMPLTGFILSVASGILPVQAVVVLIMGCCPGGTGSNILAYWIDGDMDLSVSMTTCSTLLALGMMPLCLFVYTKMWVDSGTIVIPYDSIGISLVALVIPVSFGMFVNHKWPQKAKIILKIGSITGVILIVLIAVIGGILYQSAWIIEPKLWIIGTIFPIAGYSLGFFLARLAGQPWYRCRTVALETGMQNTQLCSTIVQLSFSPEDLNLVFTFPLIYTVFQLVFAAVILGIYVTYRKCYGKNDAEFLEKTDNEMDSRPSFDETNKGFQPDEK
Sequence of Ileal Bile Acid Transporter Human (Q12908 whole entry): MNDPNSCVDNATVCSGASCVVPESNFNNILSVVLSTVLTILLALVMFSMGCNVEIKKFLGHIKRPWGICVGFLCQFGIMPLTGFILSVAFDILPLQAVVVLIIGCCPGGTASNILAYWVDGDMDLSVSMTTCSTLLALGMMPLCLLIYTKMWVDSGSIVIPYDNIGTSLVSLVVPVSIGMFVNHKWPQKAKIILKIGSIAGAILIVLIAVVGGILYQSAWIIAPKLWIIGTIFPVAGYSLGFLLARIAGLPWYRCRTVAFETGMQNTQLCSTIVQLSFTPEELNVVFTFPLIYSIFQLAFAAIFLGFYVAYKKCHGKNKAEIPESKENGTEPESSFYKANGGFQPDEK
Compound `CCCCC1(CCCC)CN(c2ccccc2)c2cc(SC)c(OCC(=O)N[C@@H](C(=O)N[C@H](C(=O)O)C(C)C)c3ccc(O)cc3)cc2S(=O)(=O)N1` [Example 13, 1,1-Dioxo-3,3-dibutyl-5-phenyl-7-methylthio-8-(N—{(R)-α-[N—((S)-1-carboxy-2-methylpropyl)carbamoyl]-4-hydroxybenzyl}carbamoylmethoxy)-2,3,4,5-tetra hydro-1,2,5-benzothiadiazepine] displayed an IC50 of 0.13 nM.

The next assay addresses IBAT (Mus musculus (Mouse), UniProt P70172). As to the kind of experiment: 75SeHCAT intestinal absorption in ApoE knock out mice (IBAT inhibitory effect). The class given is in vivo. Particulars: po, oral dose 0.156 μmol/kg, 75SeHCAT absorption over 24 hours. As for the experimental part: Species Mouse; Strain ApoE knock out; Sub strain C57BL/6; Sex Female; Total No. of animals 70; Body weight range 20 g to 22 g; Supplier Möllegaard's Breeding (Skensved, Denmark); Identification method ID cards (bar code).
Acclimatisation At least one week at the Section of Laboratory; Animal Resource at AstraZeneca; Housing conditions Kept five by five in cages (Makrolon III, 7 dm2) in a room with regulated temperature (22° C.), relative humidity (40% to 60%) and a 12/12 hours light/dark cycle. Diet Free access to R3 pellets (Lactamin, Vadstena, Sweden) during the housing and experimental period. Water, free access to tap water during the housing and experimental period.
The animals were orally administered vehicle (n=3) or the compound of Example 14 (0.156 (n=3), 0.625 (n=3) or 2.5 μmol/kg (n=3)) at 13:00 o'clock on the experimental day. Thirty minutes later, a trace amount of ^75SeHCAT (^75Se-homo-tauro-cholic acid) ([…] per 0.1 mL per mouse) was orally given to each mouse. Twenty-four hours after ^75SeHCAT administration, the animals were killed by CO2 inhalation. At sacrifice, the gall bladder and the whole intestine were removed, and the faeces during the 24-hour period after ^75SeHCAT administration was collected for each mouse. The gamma radioactivities of ^75SeHCAT in the faeces and in the gall bladder-intestine were separately counted by 1282 CompuGamma CS Gamma counter (Wallac oy, Turku, Finland). The stability as well as the quantity of the ^75SeHCAT administered to each mouse, were controlled with an additional ^75SeHCAT aliquot following the same experimental process as other tested samples in the study.
The sum of the gamma counts from both the faeces and the gall bladder-intestine was considered as the total recovered ^75SeHCAT, which was averaged around 85% of the total ^75SeHCAT administered to each mouse. Of the recovered radioactivity of ^75SeHCAT, the percentage of the ^75SeHCAT detected in the faeces was considered as the faecal excretion while that in the gall bladder-intestine as body retention. Inhibitory effect of the compound of Example 14 on ^75SeHCAT intestinal absorption was calculated following the ^75SeHCAT body retention and the faecal excretion, and the ED50 of the compound was estimated following the dose-effect curve.
The mean IBAT inhibitory effect (%) at a dose (μmol/kg): 0.156 was determined for the compounds of examples 1-14 and is reported in Table 1.
The compound `CCCCC1(CCCC)CN(c2ccccc2)c2cc(SC)c(OCC(=O)N[C@@H](C(=O)NCC(=O)O)c3ccccc3)cc2S(=O)(=O)N1` [Example 1, 1,1-Dioxo-3,3-dibutyl-5-phenyl-7-methylthio-8-(N—{(R)-α-[N-(carboxymethyl)carbamoyl]benzyl}carbamoylmethoxy)-2,3,4,5-tetrahydro-1,2,5-benzothiadiazepine] returned an inhibition at 0.156 µmol/kg of 43%.

As for `CCCCC1(CCCC)CN(c2ccccc2)c2cc(SC)c(OCC(=O)N[C@@H](C(=O)N[C@@H](CC)C(=O)O)c3ccccc3)cc2S(=O)(=O)N1` [Example 3, 1,1-Dioxo-3,3-dibutyl-5-phenyl-7-methylthio-8-(N—{(R)-α-[N—((S)-1-carboxypropyl)carbamoyl]benzyl}carbamoylmethoxy)-2,3,4,5-tetrahydro-1,2,5-benzothiadiazepine], the inhibition at 0.156 µmol/kg stood at 63%.

`CCCCC1(CCCC)CN(c2ccccc2)c2cc(SC)c(OCC(=O)N[C@@H](C(=O)N[C@@H](CSC)C(=O)O)c3ccccc3)cc2S(=O)(=O)N1` [Example 4, 1,1-Dioxo-3,3-dibutyl-5-phenyl-7-methylthio-8-(N—{(R)-α-[N—((R)-1-carboxy-2-methylthioethyl)carbamoyl]benzyl}carbamoylmethoxy)-2,3,4,5-tetrahydro-1,2,5-benzothiadiazepine]: the inhibition at 0.156 µmol/kg was found to be 63%.

In turn, `CCCCC1(CCCC)CN(c2ccccc2)c2cc(SC)c(OCC(=O)N[C@@H](C(=O)N[C@@H](CC)C(=O)O)c3ccc(O)cc3)cc2S(=O)(=O)N1` [Example 5, 1,1-Dioxo-3,3-dibutyl-5-phenyl-7-methylthio-8-(N—{(R)-α-[N—((S)-1-carboxypropyl)carbamoyl]-4-hydroxybenzyl}carbamoylmethoxy)-2,3,4,5-tetrahydro-1,2,5-benzothiadiazepine] had an inhibition at 0.156 µmol/kg of 74%.

Turning to `CCCCC1(CCCC)CN(c2ccccc2)c2cc(SC)c(OCC(=O)N[C@@H](C(=O)N[C@@H](CSC)C(=O)O)c3ccc(O)cc3)cc2S(=O)(=O)N1` [Example 6, 1,1-Dioxo-3,3-dibutyl-5-phenyl-7-methylthio-8-(N—{(R)-α-[N—((R)-1-carboxy-2-methylthio-ethyl)carbamoyl]-4-hydroxybenzyl}carbamoylmethoxy)-2,3,4,5-tetra hydro-1,2,5-benzothiadiazepine], the inhibition at 0.156 µmol/kg turned out to be 59%.

For `CCCCC1(CCCC)CN(c2ccccc2)c2cc(SC)c(OCC(=O)N[C@@H](C(=O)N[C@H](C(=O)O)C(C)C)c3ccccc3)cc2S(=O)(=O)N1` [Example 7, 1,1-Dioxo-3,3-dibutyl-5-phenyl-7-methylthio-8-(N—{(R)-α-[N—((S)-1-carboxy-2-methylpropyl)carbamoyl]benzyl}carbamoylmethoxy)-2,3,4,5-tetrahydro-1,2,5-benzothiadiazepine], the inhibition at 0.156 µmol/kg came to 66%.

On to `CCCCC1(CCCC)CN(c2ccccc2)c2cc(SC)c(OCC(=O)N[C@@H](C(=O)N[C@H](C(=O)O)[C@@H](C)O)c3ccc(O)cc3)cc2S(=O)(=O)N1` [Example 8, 1,1-Dioxo-3,3-dibutyl-5-phenyl-7-methylthio-8-(N—{(R)-α-[N—((S)-1-carboxy-2-(R)-hydroxypropyl)carbamoyl]-4-hydroxybenzyl}carbamoylmethoxy)-2,3,4,5-tetrahydro-1,2,5-benzothiadiazepine], for which the inhibition at 0.156 µmol/kg turned out to be 46%.

`CCCCC1(CCCC)CN(c2ccccc2)c2cc(SC)c(OCC(=O)N[C@@H](C(=O)N[C@@H](CCC)C(=O)O)c3ccc(O)cc3)cc2S(=O)(=O)N1` [Example 9, 1,1-Dioxo-3,3-dibutyl-5-phenyl-7-methylthio-8-(N—{(R)-α-[N—((S)-1-carboxybutyl)carbamoyl]-4-hydroxybenzyl}carbamoylmethoxy)-2,3,4,5-tetrahydro-1,2,5-benzothiadiazepine] displayed an inhibition at 0.156 µmol/kg of 67%.

For the compound `CCCCC1(CCCC)CN(c2ccccc2)c2cc(SC)c(OCC(=O)N[C@@H](C(=O)N[C@@H](C)C(=O)O)c3ccccc3)cc2S(=O)(=O)N1` [Example 10, 1,1-Dioxo-3,3-dibutyl-5-phenyl-7-methylthio-8-(N—{(R)-α-[N—((S)-1-carboxyethyl)carbamoyl]benzyl}carbamoylmethoxy)-2,3,4,5-tetrahydro-1,2,5-benzothiadiazepine], the inhibition at 0.156 µmol/kg was found to be 68%.

`CCCCC1(CCCC)CN(c2ccccc2)c2cc(SC)c(OCC(=O)N[C@@H](C(=O)N[C@@H](C)C(=O)O)c3ccc(O)cc3)cc2S(=O)(=O)N1` [Example 12, 1,1-Dioxo-3,3-dibutyl-5-phenyl-7-methylthio-8-(N—{(R)-α-[N—((S)-1-carboxyethyl)carbamoyl]-4-hydroxybenzyl}carbamoylmethoxy)-2,3,4,5-tetrahydro-1,2,5-benzothiadiazepine] yielded an inhibition at 0.156 µmol/kg of 63%.

Take `CCCCC1(CCCC)CN(c2ccccc2)c2cc(SC)c(OCC(=O)N[C@@H](C(=O)N[C@H](C(=O)O)C(C)C)c3ccc(O)cc3)cc2S(=O)(=O)N1` [Example 13, 1,1-Dioxo-3,3-dibutyl-5-phenyl-7-methylthio-8-(N—{(R)-α-[N—((S)-1-carboxy-2-methylpropyl)carbamoyl]-4-hydroxybenzyl}carbamoylmethoxy)-2,3,4,5-tetra hydro-1,2,5-benzothiadiazepine]: the inhibition at 0.156 µmol/kg was 68%.

Compound `CCCCC1(CCCC)CN(c2ccccc2)c2cc(SC)c(OCC(=O)N[C@@H](C(=O)NCC(=O)O)c3ccccc3)cc2S(=O)(=O)C1` [Example 14, 1,1-Dioxo-3,3-dibutyl-5-phenyl-7-methylthio-8-(N—{(R)-1′-phenyl-1′-[N′-(carboxymethyl)carbamoyl]methyl}carbamoylmethoxy)-2,3,4,5-tetrahydro-1,5-benzothiazepine] gave an inhibition at 0.156 µmol/kg of 28%.

The test system of a further assay is Mdr2−/− mice. As to the kind of experiment: In vivo animal model of primary sclerosing cholangitis (Mdr2-/- mice). Conditions: daily oral gavage for 2-4 weeks, vs vehicle. An excerpt: A genetic mice with targeted disruption of the Multidrug resistant Mdr2 (Abcb4) gene encoding a canalicular phospholipid flippase (Mdr2−/−mice) spontaneously develop sclerosing cholangitis with macroscopic and microscopic features of human Primary sclerosing cholangitis. Bile duct injury in these mice is linked to defective biliary phospholipid secretion resulting in an increased concentration of free non-micellar bile acids which subsequently cause bile duct epithelial cell (cholangiocyte) injury, pericholangitis, periductal fibrosis with ductular proliferation and finally sclerosing cholangitis. […] In analogy to the Mdr2−/− mouse model of sclerosing cholangitis, Multidrug resistant protein MDR3/ABCB4 (the human orthologue of rodent Mdr2/Abcb4) defects play a role in the pathogenesis of various cholangiopathies in humans. MDR3 variants play a role as a modifier gene in the pathogenesis of various cholangiopathies such as PSC, Primary Biliary cirrhosis (PBC) and adulthood idiopathic ductopenia/biliary fibrosis.
Mdr2−/− mice were given daily oral doses of the compound of Example 14 by gavage for 2-4 weeks and controls were dosed the vehicle in the same way. Serum liver tests, liver histology and fibrosis were investigated. The compound of Example 14 improves liver tests, liver histology and fibrosis.
As to `CCCCC1(CCCC)CN(c2ccccc2)c2cc(SC)c(OCC(=O)N[C@@H](C(=O)NCC(=O)O)c3ccccc3)cc2S(=O)(=O)C1` [Example 14, 1,1-Dioxo-3,3-dibutyl-5-phenyl-7-methylthio-8-(N—{(R)-1′-phenyl-1′-[N′-(carboxymethyl)carbamoyl]methyl}carbamoylmethoxy)-2,3,4,5-tetrahydro-1,5-benzothiazepine], the fibrosis result was “improves”, the liver histology entry is listed as “improves” and the “liver tests (serum)” value was “improves”.

The record behind these values is patent US10093697B2, “IBAT inhibitors for the treatment of liver diseases” (Albireo AB, priority 2010, dated 2018).
